Data as given in ChEMBL document CHEMBL3769400, “Synthesis of minoxidil conjugates and their evaluation as HL-60 differentiation agents” (Bioorg Med Chem Lett, 2016).
Activity calls are given as the source filed them. The calls are words filed in the database; no cut-off is given here.

Assays:
[1] = Induction of cell differentiation in human HL60 cells by NBT/MTT assay; assay type: functional, cell-based; conditions: HL-60
HL-60 [2] = assay: Induction of cell differentiation in human HL60 cells assessed as irregularity of nuclear and cytoplasmic shape after 3 days at 10 uM by leishmans staining based microscopic analysis; assay type: functional
HL-60 [3] = assay: Induction of cell differentiation in human HL60 cells assessed as condensation of nuclear chromatin after 3 days at 10 uM by leishmans staining based microscopic analysis; assay type: functional
HL-60 [4] = assay: Induction of cell differentiation in human HL60 cells assessed as increase in differentiation index at 10 uM measured after 5 days by NBT/MTT assay; assay type: functional, cell-based
HL-60 [5] = assay: Induction of cell differentiation in human HL60 cells assessed as increase in differentiation index at 10 uM measured after 3 days by NBT/MTT assay; assay type: functional, cell-based
PBMC = assay: Cytotoxicity against human PBMC cells assessed as cell viability by MTT assay; assay type: cell-based
HL-60 [6] = assay: Induction of cell differentiation in human HL60 assessed as reduction in cell number after 3 days at 10 uM by leishmans staining based microscopic analysis; assay type: functional
HL-60 [7] = assay: Induction of cell differentiation in human HL60 at 10 uM after 3 days by leishmans staining based microscopic analysis; assay type: functional
HL-60 [8] = assay: Induction of cell differentiation in human HL60 cells at 10 uM co-administered with DAF measured after 3 days by NBT/MTT assay; assay type: functional, cell-based
HL-60 [9] = assay: Induction of cell differentiation in human HL60 cells at 10 uM co-administered with MDA measured after 3 days by NBT/MTT assay; assay type: functional, cell-based
HL-60 [10] = assay: Induction of cell differentiation in human HL60 cells at 0.1 to 10 uM measured after 3 days by NBT/MTT assay; assay type: functional, cell-based
HL-60 [11] = assay: Induction of cell differentiation in human HL60 cells at 0.1 to 10 uM measured after 5 days by NBT/MTT assay; assay type: functional, cell-based

Structure (SMILES)	IC50 [1]	Activity (HL-60 [5])	Activity (PBMC)	also measured
COc1ccc(C(NC(=O)Nc2cc(N3CCCCC3)nc(N)[n+]2[O-])c2ccc(OC)cc2)cc1	> 10 µM			
Nc1ccc2c(c1)Cc1cc(NC(=O)Nc3cc(N4CCCCC4)nc(N)[n+]3[O-])ccc1-2	3.04 µM	Active	Toxic	Activity (HL-60 [2]): Active; Activity (HL-60 [3]): Active; Activity (HL-60 [4]): Active; Activity (HL-60 [6]): Active
Nc1nc(N2CCCCC2)cc(NC(=O)NC(c2ccccc2)c2ccccc2)[n+]1[O-]	3.05 µM	Active	Toxic	Activity (HL-60 [4]): Active
CCCCNC(=O)Nc1cc(N2CCCCC2)nc(N)[n+]1[O-]	> 10 µM			
Nc1nc(N2CCCCC2)cc(NC(=O)NCc2ccccc2)[n+]1[O-]	> 10 µM			
Nc1cc(N2CCCCC2)nc(N)[n+]1[O-] [MINOXIDIL]	> 10 µM			Activity (HL-60 [7]): inactive; Activity (HL-60 [8]): inactive; Activity (HL-60 [9]): inactive
N#CCCNC(=O)Nc1cc(N2CCCCC2)nc(N)[n+]1[O-]	> 10 µM			
NCCCCNC(=O)Nc1cc(N2CCCCC2)nc(N)[n+]1[O-]	> 10 µM			
CC1=C(/C=C/C(C)=C/C=C/C(C)=C/C(=O)O)C(C)(C)CCC1				Activity (HL-60 [10]): Active; Activity (HL-60 [11]): Active
Nc1ccc(Cc2ccc(NC(=O)Nc3cc(N4CCCCC4)nc(N)[n+]3[O-])cc2)cc1	3.02 µM	Active	Toxic	Activity (HL-60 [2]): Active; Activity (HL-60 [3]): Active; Activity (HL-60 [4]): Active; Activity (HL-60 [6]): Active
Nc1ccc2c(c1)Cc1cc(N)ccc1-2		inactive		
Nc1ccc(Cc2ccc(N)cc2)cc1		inactive		Activity (HL-60 [7]): inactive
NCCCNCCCCNCCCNC(=O)Nc1cc(N2CCCCC2)nc(N)[n+]1[O-].O=C(O)C(F)(F)F.O=C(O)C(F)(F)F.O=C(O)C(F)(F)F	3.02 µM	Active	Toxic	Activity (HL-60 [4]): Active
CCCCCCCCCCCCCC(=O)O[C@@H]1[C@@H](C)[C@@]2(O)[C@@H](C=C(CO)C[C@]3(O)C(=O)C(C)=C[C@@H]23)[C@@H]2C(C)(C)[C@]12OC(C)=O				Activity (HL-60 [7]): inactive
NCCCCCCNC(=O)Nc1cc(N2CCCCC2)nc(N)[n+]1[O-].O=C(O)C(F)(F)F	3.3 µM		Toxic	Activity (HL-60 [2]): Active; Activity (HL-60 [10]): Active; Activity (HL-60 [3]): Active; Activity (HL-60 [11]): inactive; Activity (HL-60 [6]): Active
